From patent US8003343B2, “Method for determining diamine oxidase” (Sciotec Diagnostic Technologies GmbH, priority 2005, dated 2011) come the findings set out here.

The structures appear in SMILES notation.

In this assay the target is diamine oxidase (DAO; EC 1.4.3.6) (Homo sapiens, UniProt P19801). The assay is described as follows: biochemical. On the procedure:
The sample is contacted and mixed with the given amount of diamine preferably dissolved in an aqueous solution. It is, of course, also possible to directly add a given amount of diamine to a defined amount of sample (e.g. in crystal form). […] After having incubated this mixture for a fixed period during which the diamine contained in the aqueous solution is degraded in the presence of DAO as a function of the amount of the latter, the diamine remaining in the mixture is derivatized by 95%, preferably 99%, even more preferred 99.5%, in particular 100%. The incubation conditions must be selected such that the DAO possibly present in the sample is able to convert the present diamine. DAO is an enzyme which converts diamine substrates such as, e.g. histamine, at such reaction rates that the incubation time will preferably last for at least 30 minutes.
FIG. 3 depicts the relative enzymatic activity of a defined amount of DAO in a sample as a function of the amount of histamine used.

Chain of diamine oxidase (DAO; EC 1.4.3.6) (P19801 20-751, species assumed): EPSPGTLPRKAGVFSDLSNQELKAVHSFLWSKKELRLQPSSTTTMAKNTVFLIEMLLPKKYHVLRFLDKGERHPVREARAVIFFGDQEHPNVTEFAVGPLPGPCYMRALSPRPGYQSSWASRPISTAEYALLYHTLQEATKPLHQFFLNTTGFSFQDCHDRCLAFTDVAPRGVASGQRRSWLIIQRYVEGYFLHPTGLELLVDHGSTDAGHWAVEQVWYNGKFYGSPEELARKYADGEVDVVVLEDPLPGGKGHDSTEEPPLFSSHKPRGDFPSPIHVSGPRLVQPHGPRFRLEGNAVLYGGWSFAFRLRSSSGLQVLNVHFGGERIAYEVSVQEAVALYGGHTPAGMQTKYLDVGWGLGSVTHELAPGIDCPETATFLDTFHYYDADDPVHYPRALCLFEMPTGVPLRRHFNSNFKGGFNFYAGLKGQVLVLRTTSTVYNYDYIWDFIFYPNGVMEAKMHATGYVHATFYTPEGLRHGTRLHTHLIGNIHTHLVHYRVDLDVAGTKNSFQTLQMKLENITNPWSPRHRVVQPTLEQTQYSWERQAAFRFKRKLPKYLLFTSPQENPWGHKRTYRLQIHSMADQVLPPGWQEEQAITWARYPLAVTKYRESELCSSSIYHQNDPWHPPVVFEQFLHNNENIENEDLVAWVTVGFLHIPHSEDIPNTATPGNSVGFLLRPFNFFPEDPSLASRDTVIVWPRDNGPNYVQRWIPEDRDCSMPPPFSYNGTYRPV

As a reminder, the inhibition is the change of the read-out against control, counted positive when it falls. Consider `NCCc1c[nH]cn1` [histamine, 1H-imidazole-4-ethylamine], for which the “inhibition of DAO” value (addition of at least 100 μM histamine) is recorded as “at least partially inhibited”. For the same molecule, the inhibition at 500 µM (read-out: inhibition of DAO) is around 60%.
